Numbering of substitutions follows the chain as printed.

For orientation: IC50 means the concentration needed to halve the response being measured. A higher IC50 goes with weaker potency in that assay.

The target in assay [1] is T1, NavMs voltage-gated sodium channel (Magnetococcus marinus, UniProt A0L5S6).
T1 construct: gene Mmc1_0798; wild-type NavMs α-subunit in CHO-K1 cells, co-transfected with β1-subunit and eGFP
T1 sequence (A0L5S6 1-274): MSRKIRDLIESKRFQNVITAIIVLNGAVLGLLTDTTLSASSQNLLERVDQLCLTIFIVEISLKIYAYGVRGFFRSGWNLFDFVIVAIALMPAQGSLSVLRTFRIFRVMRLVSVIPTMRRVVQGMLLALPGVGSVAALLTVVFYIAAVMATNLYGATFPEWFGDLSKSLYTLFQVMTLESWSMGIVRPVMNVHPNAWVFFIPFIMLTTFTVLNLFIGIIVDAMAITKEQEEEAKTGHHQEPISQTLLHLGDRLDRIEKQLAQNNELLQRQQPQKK
Description: whole-cell voltage-clamp of transfected CHO-K1 cells. The class given is cell-based.

Assay [2] concerns the target T2, NavMs voltage-gated sodium channel (Magnetococcus marinus, UniProt A0L5S6, T207A).
T2 construct: gene Mmc1_0798; T207A NavMs α-subunit in CHO-K1 cells, co-transfected with β1-subunit and eGFP
T2 sequence (A0L5S6 1-274 T207A): T1 sequence (A0L5S6 1-274) with T207A
Description: whole-cell voltage-clamp, block at […] CBD. The format is cell-based.

In turn, `C=C(C)[C@@H]1CCC(C)=C[C@H]1c1c(O)cc(CCCCC)cc1O` [Cannabidiol] yielded an IC50 in assay [1] of 17.8 ± 0.5 µM. In assay [2], the “whole-cell voltage-clamp, block at 10 μM CBD” value is on record as “The mutation of the threonine side chain to a smaller alanine side chain results in a modest reduction in the CBD block”.
